Measured values published in ChEMBL document CHEMBL3351318, “Synthesis of novel 4-nitropyrrole-based semicarbazide and thiosemicarbazide hybrids with antimicrobial and anti-tubercular activity” (Bioorg Med Chem Lett, 2014).
Values after ≈ are worked out from the molar mass of the structure shown.

Legend:
Staphylococcus aureus [1] = assay: Ratio of ciprofloxacin MIC to compound MIC for methicillin-resistant Staphylococcus aureus ATCC 43866 after 48 hrs by broth dilution technique; assay type: functional
Klebsiella pneumoniae = assay: Antimicrobial activity against Klebsiella pneumoniae after 48 hrs by broth dilution technique; assay type: functional
Escherichia coli [2] = assay: Ratio of ciprofloxacin MIC to compound MIC for Escherichia coli ATCC 25922 after 48 hrs by broth dilution technique; assay type: functional
Escherichia coli [3] = assay: Antimicrobial activity against Escherichia coli ATCC 25922 after 48 hrs by broth dilution technique; assay type: functional; details: ATCC 25922, 48 h
Staphylococcus aureus [4] = assay: Antimicrobial activity against methicillin-sensitive Staphylococcus aureus ATCC 35556 after 48 hrs by broth dilution technique; assay type: functional; details: ATCC 35556, 48 h
[5] = test system: Mycobacterium tuberculosis; assay: Antitubercular activity against Mycobacterium tuberculosis H37Rv after 7 days by Resazurin micro titer assay; assay type: functional; details: 168 h
Staphylococcus aureus [6] = assay: Antimicrobial activity against methicillin-resistant Staphylococcus aureus ATCC 43866 after 48 hrs by broth dilution technique; assay type: functional; details: ATCC 43866, 48 h
Vero = assay: Cytotoxicity against African green monkey Vero cells assessed as reduction in cell viability after 72 hrs by MTT assay; assay type: cell-based; details: Chlorocebus sabaeus
Staphylococcus aureus [7] = assay: Ratio of ciprofloxacin MIC to compound MIC for methicillin-sensitive Staphylococcus aureus ATCC 35556 after 48 hrs by broth dilution technique; assay type: functional
Candida albicans [8] = assay: Antimicrobial activity against Candida albicans after 48 hrs by agar dilution method; assay type: functional
Candida albicans [9] = assay: Ratio of Amphotericin B MIC to compound MIC for Candida albicans after 48 hrs by broth dilution technique; assay type: functional

| SMILES | Ratio (Staphylococcus aureus [1]) | MIC (Klebsiella pneumoniae) [µg/mL] | Ratio (Escherichia coli [2]) | MIC (Escherichia coli [3]) [µg/mL] | MIC (Staphylococcus aureus [4]) [µg/mL] | MIC [5] [µg/mL] | MIC (Staphylococcus aureus [6]) [µg/mL] | IC50 (Vero) [µM] | Ratio (Staphylococcus aureus [7]) | MIC (Candida albicans [8]) [µg/mL] | Ratio (Candida albicans [9]) |
| --- | --- | --- | --- | --- | --- | --- | --- | --- | --- | --- | --- |
| Cn1cc([N+](=O)[O-])cc1C(=O)NNC(=S)Nc1ccc(F)cc1 | 8 | 1.56 (≈ 4.62 µM) | 4 | 0.39 (≈ 1.16 µM) | 0.195 (≈ 0.578 µM) | 6.7 (≈ 19.9 µM) | 0.39 (≈ 1.16 µM) | 662 | 8 | 0.78 (≈ 2.31 µM) | 4 |
| Cc1ccccc1NC(=S)NNC(=O)c1cc([N+](=O)[O-])cn1C | – | 1.56 (≈ 4.68 µM) | 4 | 0.39 (≈ 1.17 µM) | 0.39 (≈ 1.17 µM) | 11.9 (≈ 35.7 µM) | 0.78 (≈ 2.34 µM) | 471 | 4 | 0.78 (≈ 2.34 µM) | 4 |
| Cn1cc([N+](=O)[O-])cc1C(=O)NNC(=S)Nc1ccc([N+](=O)[O-])cc1 | 8 | 1.56 (≈ 4.28 µM) | 4 | 0.39 (≈ 1.07 µM) | 0.195 (≈ 0.535 µM) | 53.8 (≈ 148 µM) | 0.39 (≈ 1.07 µM) | 395 | 8 | 0.78 (≈ 2.14 µM) | 4 |
| Cn1cc([N+](=O)[O-])cc1C(=O)NNC(=S)NC1CCCCC1 | 4 | 1.56 (≈ 4.79 µM) | 4 | 0.39 (≈ 1.2 µM) | 0.39 (≈ 1.2 µM) | 27.5 (≈ 84.5 µM) | 0.78 (≈ 2.4 µM) | 352 | 4 | 0.78 (≈ 2.4 µM) | 4 |
| COc1ccc(NC(=S)NNC(=O)c2cc([N+](=O)[O-])cn2C)cc1 | 8 | 1.56 (≈ 4.47 µM) | 4 | 0.39 (≈ 1.12 µM) | 0.195 (≈ 0.558 µM) | 19.4 (≈ 55.5 µM) | 0.39 (≈ 1.12 µM) | 184 | 8 | 0.78 (≈ 2.23 µM) | 4 |
| Cn1cc([N+](=O)[O-])cc1C(=O)NNC(=S)Nc1ccccc1F | 4 | 1.56 (≈ 4.62 µM) | 4 | 0.39 (≈ 1.16 µM) | 0.39 (≈ 1.16 µM) | 3.2 (≈ 9.49 µM) | 0.78 (≈ 2.31 µM) | 293 | 4 | 0.78 (≈ 2.31 µM) | 4 |
| Cn1cc([N+](=O)[O-])cc1C(=O)NNC(=S)Nc1ccc(Cl)cc1 | 8 | 1.56 (≈ 4.41 µM) | 4 | 0.39 (≈ 1.1 µM) | 0.195 (≈ 0.551 µM) | 16.3 (≈ 46.1 µM) | 0.39 (≈ 1.1 µM) | 210 | 8 | 0.78 (≈ 2.2 µM) | 4 |
